Assay results as given in PubChem BioAssay (NCI).
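Each compound was tested at five concentrations against cells in 96-well plates for 48 hours. Abbreviation: GI50, concentration required for 50% inhibition of growth. TGI marks complete inhibition of growth.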

Columns and labels:
Assay in all cases: DTP human tumour cell line panel, 48 h
MALME-3M melanoma = tested on: MALME-3M melanoma
MCF7 breast = tested on: MCF7 breast
UACC-257 melanoma = tested on: UACC-257 melanoma
SNB-75 CNS = tested on: SNB-75 CNS
SNB-19 CNS = tested on: SNB-19 CNS
LOX IMVI melanoma = tested on: LOX IMVI melanoma
COLO 205 colon = tested on: COLO 205 colon
NCI-H460 lung = tested on: NCI-H460 lung
HCT-15 colon = tested on: HCT-15 colon
TK-10 renal = tested on: TK-10 renal
MDA-MB-231 breast = tested on: MDA-MB-231 breast
NCI-H522 lung = tested on: NCI-H522 lung
OVCAR-5 ovarian = tested on: OVCAR-5 ovarian
NCI-H23 lung = tested on: NCI-H23 lung
PC-3 prostate = tested on: PC-3 prostate
OVCAR-8 ovarian = tested on: OVCAR-8 ovarian
HT29 colon = tested on: HT29 colon
OVCAR-4 ovarian = tested on: OVCAR-4 ovarian
SF-539 CNS = tested on: SF-539 CNS
A549 NSCLC = tested on: A549 NSCLC
SW-620 colon = tested on: SW-620 colon
OVCAR-3 ovarian = tested on: OVCAR-3 ovarian
SF-268 CNS = tested on: SF-268 CNS
HCC-2998 colon = tested on: HCC-2998 colon
SR leukemia = tested on: SR leukemia
K-562 leukemia = tested on: K-562 leukemia
A498 renal = tested on: A498 renal
U251 CNS = tested on: U251 CNS
MOLT-4 leukemia = tested on: MOLT-4 leukemia
SK-MEL-28 melanoma = tested on: SK-MEL-28 melanoma
RPMI-8226 leukemia = tested on: RPMI-8226 leukemia
DU-145 prostate = tested on: DU-145 prostate
SN12C renal = tested on: SN12C renal
HOP-62 NSCLC = tested on: HOP-62 NSCLC
MDA-MB-468 breast = tested on: MDA-MB-468 breast
HCT-116 colon = tested on: HCT-116 colon
T-47D breast = tested on: T-47D breast
ACHN renal = tested on: ACHN renal
EKVX NSCLC = tested on: EKVX NSCLC
UO-31 renal = tested on: UO-31 renal
KM12 colon = tested on: KM12 colon
SK-OV-3 ovarian = tested on: SK-OV-3 ovarian
BT-549 breast = tested on: BT-549 breast
UACC-62 melanoma = tested on: UACC-62 melanoma
SK-MEL-5 melanoma = tested on: SK-MEL-5 melanoma
RXF 393 renal = tested on: RXF 393 renal
786-0 renal = tested on: 786-0 renal
NCI-H226 lung = tested on: NCI-H226 lung
IGROV1 ovarian = tested on: IGROV1 ovarian
HOP-92 NSCLC = tested on: HOP-92 NSCLC
M14 melanoma = tested on: M14 melanoma
SF-295 CNS = tested on: SF-295 CNS
CAKI-1 renal = tested on: CAKI-1 renal
HL-60(TB) leukemia = tested on: HL-60(TB) leukemia
MDA-MB-435 = tested on: MDA-MB-435
SK-MEL-2 melanoma = tested on: SK-MEL-2 melanoma
HS 578T breast = tested on: HS 578T breast

## N#CC1=C(c2ccco2)Nc2c(c(-c3ccccc3)nn2-c2ccccc2)C12C(=O)Nc1ccc(Br)cc12 (centres undefined)
MALME-3M melanoma
  GI50: 16.1 µM
  TGI: 29.9 µM
MCF7 breast
  GI50: 17.3 µM
  TGI: 33.1 µM
UACC-257 melanoma
  GI50: 20.5 µM
  TGI: 50.6 µM
SNB-75 CNS
  GI50: 16 µM
  TGI: 38 µM
SNB-19 CNS
  GI50: 18.6 µM
  TGI: 42.2 µM
LOX IMVI melanoma
  GI50: 18.1 µM
  TGI: 34.8 µM
COLO 205 colon
  GI50: 25.4 µM
  TGI: 69.1 µM
NCI-H460 lung
  GI50: 17.9 µM
  TGI: 33.4 µM
HCT-15 colon
  GI50: 18.1 µM
  TGI: 36.9 µM
TK-10 renal
  GI50: 17 µM
  TGI: 33.5 µM
MDA-MB-231 breast
  GI50: 18.3 µM
  TGI: 34.2 µM
NCI-H522 lung
  GI50: 20.4 µM
  TGI: 48.4 µM
OVCAR-5 ovarian
  GI50: 19.1 µM
  TGI: 44.2 µM
NCI-H23 lung
  GI50: 21.5 µM
  TGI: 47.7 µM
PC-3 prostate
  GI50: 16.2 µM
  TGI: 31.6 µM
OVCAR-8 ovarian
  GI50: 18 µM
  TGI: 33.1 µM
HT29 colon
  GI50: 18.3 µM
  TGI: 35.2 µM
OVCAR-4 ovarian
  GI50: 19.2 µM
  TGI: 40.7 µM
SF-539 CNS
  GI50: 18.1 µM
  TGI: 35.1 µM
A549 NSCLC
  GI50: 17.4 µM
  TGI: 33 µM
SW-620 colon
  GI50: 30 µM
  TGI: 97.6 µM
OVCAR-3 ovarian
  GI50: 28.9 µM
  TGI: 96.4 µM
SF-268 CNS
  GI50: 26.8 µM
  TGI: 74 µM
HCC-2998 colon
  GI50: 36.5 µM
  TGI: > 100 µM
SR leukemia
  GI50: 48.9 µM
  TGI: > 100 µM
K-562 leukemia
  GI50: 38 µM
  TGI: > 100 µM
A498 renal
  GI50: 16.8 µM
  TGI: 32.1 µM
U251 CNS
  GI50: 18 µM
  TGI: 33.4 µM
MOLT-4 leukemia
  GI50: 35.2 µM
  TGI: > 100 µM
SK-MEL-28 melanoma
  GI50: 17.9 µM
  TGI: 33.6 µM
RPMI-8226 leukemia
  GI50: 35.9 µM
  TGI: > 100 µM
DU-145 prostate
  GI50: 20.5 µM
  TGI: 40.2 µM
SN12C renal
  GI50: 18.3 µM
  TGI: 35.6 µM
HOP-62 NSCLC
  GI50: 18.4 µM
  TGI: 37.8 µM
MDA-MB-468 breast
  GI50: 26 µM
  TGI: 69.3 µM
HCT-116 colon
  GI50: 18.6 µM
  TGI: 36.3 µM
T-47D breast
  GI50: 30.4 µM
  TGI: > 100 µM
ACHN renal
  GI50: 18.7 µM
  TGI: 35.7 µM
EKVX NSCLC
  GI50: 20.9 µM
  TGI: 54.6 µM
UO-31 renal
  GI50: 28.1 µM
  TGI: > 100 µM
KM12 colon
  GI50: 33.2 µM
  TGI: > 100 µM
SK-OV-3 ovarian
  GI50: 17.3 µM
  TGI: 34.1 µM
BT-549 breast
  GI50: 14.6 µM
  TGI: 29.7 µM
UACC-62 melanoma
  GI50: 17.2 µM
  TGI: 32.1 µM
SK-MEL-5 melanoma
  GI50: 18 µM
  TGI: 32.6 µM
RXF 393 renal
  GI50: 17.3 µM
  TGI: 34.5 µM
786-0 renal
  GI50: 21.3 µM
  TGI: 51.8 µM
NCI-H226 lung
  GI50: 21.1 µM
  TGI: 44.4 µM
IGROV1 ovarian
  GI50: 18.5 µM
  TGI: 34.6 µM
HOP-92 NSCLC
  GI50: 16.8 µM
  TGI: 33.2 µM
M14 melanoma
  GI50: 18.5 µM
  TGI: 36.8 µM
SF-295 CNS
  GI50: 19.6 µM
  TGI: 50 µM
CAKI-1 renal
  GI50: 19.3 µM
  TGI: 43.2 µM
HL-60(TB) leukemia
  GI50: 53.2 µM
  TGI: > 100 µM
MDA-MB-435
  GI50: 24.2 µM
  TGI: 61.5 µM
SK-MEL-2 melanoma
  GI50: 18.1 µM
  TGI: 36.7 µM
HS 578T breast
  GI50: 19.3 µM
  TGI: 47.8 µM
